Source: patent publication US20230339891A1, “URACIL DERIVATIVES AS MER-AXL INHIBITORS” (BRISTOL-MYERS SQUIBB COMPANY, priority 2018, published 2023)

How the values were obtained:
GST-MERTK 578-872 = GST-MERTK 578-872 (Homo sapiens (Human), UniProt Q12866); assay: MERTK kinase homogeneous time resolved fluorescence (HTRF) binding assay; details: 1 nM kinase, fluorescein-labeled kinase tracer at Kd, 60 minutes at room temperature; read-out: Mer HTRF IC50
Protocol: (§1) MERTK, AXL, TYRO3 Kinase Homogeneous Time Resolved Fluorescence (HTRF) Assay
(§2) Assays were performed in black, flat-bottom, 1536-well plates. The reactions were incubated at room temperature for 60 minutes, following which the HTRF signals, ratio of fluorescence intensities at emission wavelengths for fluorescein acceptor (520 nm) and terbium donor (495 nm), the 520/495 ratio, were measured on the Envision Plate reader. Inhibition data were calculated from the 520/495 ratio generated by the no protein control reactions for 100% inhibition and vehicle-only reactions for 0% inhibition, and dose response curves generated to determine the concentration required for inhibiting 50% of the HTRF signal (IC50). Compounds were dissolved at 10 mM in dimethylsulfoxide (DMSO) and evaluated at eleven concentrations.

HIS-AXL 473-End = HIS-AXL 473-End (Homo sapiens (Human), UniProt P30530); assay: AXL kinase homogeneous time resolved fluorescence (HTRF) binding assay; details: 1 nM kinase, fluorescein-labeled kinase tracer at Kd, 60 minutes at room temperature
Protocol: as §1, §2

Chain of GST-MERTK 578-872 (Q12866 578-872): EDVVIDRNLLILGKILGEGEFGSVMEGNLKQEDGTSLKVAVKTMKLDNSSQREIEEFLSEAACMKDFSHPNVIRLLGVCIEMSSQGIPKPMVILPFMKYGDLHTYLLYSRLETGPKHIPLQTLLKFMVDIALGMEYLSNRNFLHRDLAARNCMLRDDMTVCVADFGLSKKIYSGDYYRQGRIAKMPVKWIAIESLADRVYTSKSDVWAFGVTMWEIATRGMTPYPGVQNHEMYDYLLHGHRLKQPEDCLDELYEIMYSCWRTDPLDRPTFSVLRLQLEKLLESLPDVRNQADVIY
Chain of HIS-AXL 473-End (P30530 473-894): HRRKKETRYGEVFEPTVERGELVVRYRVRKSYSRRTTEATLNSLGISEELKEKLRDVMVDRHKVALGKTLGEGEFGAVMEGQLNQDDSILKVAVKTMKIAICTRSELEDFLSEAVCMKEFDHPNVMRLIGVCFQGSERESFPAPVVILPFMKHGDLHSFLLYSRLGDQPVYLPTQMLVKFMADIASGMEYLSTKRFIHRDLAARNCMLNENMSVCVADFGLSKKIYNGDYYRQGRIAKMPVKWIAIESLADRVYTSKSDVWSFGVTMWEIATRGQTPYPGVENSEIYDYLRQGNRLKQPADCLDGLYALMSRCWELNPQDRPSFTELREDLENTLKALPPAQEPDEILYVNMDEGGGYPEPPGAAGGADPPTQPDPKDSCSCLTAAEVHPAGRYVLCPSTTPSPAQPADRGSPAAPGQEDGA

Row | SMILES | IC50 (GST-MERTK 578-872) | IC50 (HIS-AXL 473-End)
1 | Cn1cc(C(=O)Nc2ccc(Oc3ccnc(Nc4ccc(S(C)(=O)=O)cn4)c3)c(F)c2)c(=O)n(-c2ccc(F)cc2)c1=O [Example 38] | 16 nM | 3.5 nM
2 | CC(C)n1cc(C(=O)Nc2ccc(Oc3ccnc(Nc4ccc(N5CCC(N)C5=O)cn4)c3)c(F)c2)c(=O)n(-c2ccc(F)cc2)c1=O (stereo not shown) [Example 90] | 3.1 nM | 2.2 nM
3 | CC(C)n1cc(C(=O)Nc2ccc(Oc3ccnc(Nc4ccc(S(=O)(=O)N(C)C)cn4)c3)cc2)c(=O)n(-c2ccc(F)cc2)c1=O [Example 74, N-{4-[(2-{[5-(dimethylsulfamoyl)pyridin-2-yl]amino}pyridin-4-yl)oxy]phenyl}-3-(4-fluorophenyl)-2,4-dioxo-1-(propan-2-yl)-1,2,3,4-tetrahydropyrimidine-5-carboxamide] | 1440 nM | 2.9 nM
4 | Cc1cnc(Nc2ccnc(N3CCC(S(C)(=O)=O)CC3)n2)cc1Oc1ccc(NC(=O)c2cn(C(C)C)c(=O)n(-c3ccccc3)c2=O)cc1 [Example 115, N-{4-[(2-{[2-(4-methanesulfonylpiperidin-1-yl)pyrimidin-4-yl]amino}-5-methylpyridin-4-yl)oxy]phenyl}-2,4-dioxo-3-phenyl-1-(propan-2-yl)-1,2,3,4-tetrahydropyrimidine-5-carboxamide] | 810 nM | 41 nM
5 | CC(C)n1cc(C(=O)Nc2ccc(Oc3ccnc(Nc4cc(N5CCOCC5)ccn4)c3)c(F)c2)c(=O)n(-c2ccc(F)cc2)c1=O [Example 22] | 49 nM | 8.9 nM
6 | CC(C)n1cc(C(=O)Nc2ccc(Oc3ccnc(Nc4ccc(S(=O)(=O)N(C)C)cn4)c3)c(F)c2)c(=O)n(-c2ccc(F)c(F)c2)c1=O [Example 69] | 23 nM | 18 nM
7 | CC(C)n1cc(C(=O)Nc2ccc(Oc3ccnc(Nc4ccc(S(=O)(=O)NC5CC5)cn4)c3)c(F)c2)c(=O)n(-c2ccc(F)cc2)c1=O [Example 79] | 13 nM | 70 nM
8 | CC(C)n1cc(C(=O)Nc2ccc(Oc3ccnc(Nc4ccnc(N5CCC(S(C)(=O)=O)CC5)n4)c3)c(F)c2)c(=O)n(C23CC(C2)C3)c1=O [Example 113] | 2.8 nM | 4.8 nM
9 | CC(C)n1cc(C(=O)Nc2ccc(Oc3ccnc(Nc4ccc(S(=O)(=O)N5CCOCC5)cn4)c3)c(F)c2)c(=O)n(-c2ccc(F)cc2)c1=O [Example 84] | 31 nM | 2330 nM
10 | CCc1cnc(Nc2cc(Oc3ccc(NC(=O)c4cn(C(C)C)c(=O)n(-c5ccc(F)cc5)c4=O)cc3F)ccn2)nc1 [Example 32] | 342 nM | 0.9 nM
11 | COC(=O)N1CCN(c2nc(Nc3cc(Oc4ccc(NC(=O)c5cn(C(C)C)c(=O)n(-c6ccc(F)cc6)c5=O)cc4F)ccn3)ccc2S(=O)(=O)N(C)C)CC1 [Example 100] | 2.1 nM | 3.1 nM
12 | CC(C)n1cc(C(=O)Nc2ccc(Oc3ccnc(Nc4ccc(S(C)(=O)=O)cn4)c3)c(F)c2)c(=O)n(-c2ccc(F)cc2)c1=O [Example 18] | 18 nM | 11 nM
13 | CC(C)n1cc(C(=O)Nc2ccc(Oc3ccnc(Nc4ccc(C(F)(F)F)c(N5CCN(S(=O)(=O)N(C)C)CC5)n4)c3)c(F)c2)c(=O)n(-c2ccc(F)cc2)c1=O [Example 141] | 17 nM | 14700 nM
14 | CC(C)n1cc(C(=O)Nc2ccc(Oc3ccnc(Nc4ccc(C#N)c(N5CCC(O)(C(F)(F)F)CC5)n4)c3)c(F)c2)c(=O)n(-c2ccc(F)cc2)c1=O [Example 122] | 6 nM | 9.8 nM
15 | CC(C)n1cc(C(=O)Nc2ccc(Oc3ccnc(Nc4ccnc(N5CCCC5)n4)c3)c(F)c2)c(=O)n(Cc2ccccc2)c1=O [Example 106] | 8.2 nM | 8.2 nM
16 | CC(C)n1cc(C(=O)Nc2ccc(Oc3ccnc(Nc4ccnc(N5CCCC5)n4)c3)c(F)c2)c(=O)n(C2CCCCC2)c1=O [Example 109] | 70 nM | 62 nM
17 | CN(C)S(=O)(=O)c1ccc(Nc2cc(Oc3ccc(NC(=O)c4cn(C)c(=O)n(-c5ccc(F)cc5)c4=O)cc3F)ccn2)nc1 [Example 44] | 71 nM | 19 nM
18 | CC(C)n1cc(C(=O)Nc2ccc(Oc3ccnc(Nc4ccc(S(=O)(=O)N5CCC5)cn4)c3)c(F)c2)c(=O)n(-c2ccc(F)cc2)c1=O [Example 81] | 17 nM | 4.4 nM

Row | SMILES | IC50 (GST-MERTK 578-872) | IC50 (HIS-AXL 473-End)
19 | CC(C)n1cc(C(=O)Nc2ccc(Oc3ccnc(Nc4ccnc(N5CCCC5)n4)c3)c(F)c2)c(=O)n(C(C)C)c1=O [Example 108] | 9.1 nM | 3.8 nM
20 | CN(C)S(=O)(=O)c1ccc(Nc2cc(Oc3ccc(NC(=O)c4cn(C5CC5)c(=O)n(-c5ccc(F)cc5)c4=O)cc3F)ccn2)nc1 [Example 40, 1-Cyclopropyl-N-{4-[(2-{[5-(dimethylsulfamoyl)pyridin-2-yl]amino}pyridin-4-yl)oxy]-3-fluorophenyl}-3-(4-fluorophenyl)-2,4-dioxo-1,2,3,4-tetrahydropyrimidine-5-carboxamide] | 11 nM | 3.8 nM
21 | CC(=O)c1cccc(-n2c(=O)c(C(=O)Nc3ccc(Oc4ccnc(Nc5ccc(S(=O)(=O)N(C)C)cn5)c4)c(F)c3)cn(C(C)C)c2=O)c1 [Example 73] | 24 nM | 59 nM
22 | CC(C)n1cc(C(=O)Nc2ccc(Oc3ccnc(Nc4ccc(C(=O)NS(=O)(=O)C(C)C)cn4)c3)c(F)c2)c(=O)n(-c2ccc(F)cc2)c1=O [Example 96] | 2.9 nM | 0.7 nM
23 | CC(C)n1cc(C(=O)Nc2ccc(Oc3ccnc(Nc4ccn(C(F)F)n4)c3)c(F)c2)c(=O)n(-c2ccc(F)cc2)c1=O [Example 35, N-{4-[(2-{[1-(Difluoromethyl)-1H-pyrazol-3-yl]amino}pyridin-4-yl)oxy]-3-fluorophenyl}-3-(4-fluorophenyl)-2,4-dioxo-1-(propan-2-yl)-1,2,3,4-tetrahydropyrimidine-5-carboxamide] | 4.3 nM | 0.8 nM
24 | CN(C)S(=O)(=O)c1ccc(Nc2cc(Oc3ccc(NC(=O)c4cn([C@@H]5CCOC5)c(=O)n(-c5ccc(F)cc5)c4=O)cc3F)ccn2)nc1 [Example 46] | 12 nM | 5.4 nM
25 | Cc1ccc(Nc2cc(Oc3ccc(NC(=O)c4cn(C(C)C)c(=O)n(-c5ccc(F)cc5)c4=O)cc3F)ccn2)nc1Cl [Example 7] | 82 nM | 21 nM
26 | CCc1cnc(Nc2cc(Oc3ccc(NC(=O)c4cn(C(C)C)c(=O)n(-c5ccc(F)cc5)c4=O)cc3F)ccn2)cn1 [Example 28] | 20 nM | 7.4 nM
27 | CC(C)n1cc(C(=O)Nc2ccc(Oc3ccnc(Nc4ccnc(N5CCCC5)n4)c3)c(F)c2)c(=O)n(C23CC(C2)C3)c1=O [Example 104, 3-(Bicyclo[1.1.1]pentan-1-yl)-N-(3-fluoro-4-((2-((2-(pyrrolidin-1-yl)pyrimidin-4-yl)amino)pyridin-4-yl)oxy)phenyl)-1-isopropyl-2,4-dioxo-1,2,3,4-tetrahydropyrimidine-5-carboxamide] | 3.9 nM | 3.1 nM
28 | CN(C)S(=O)(=O)c1ccc(Nc2cc(Oc3ccc(NC(=O)c4cn(C5CC5)c(=O)n(-c5ccccc5)c4=O)cc3F)ccn2)nc1 [Example 43] | 21 nM | 222 nM
29 | CCc1ccc(Nc2cc(Oc3ccc(NC(=O)c4cn(C(C)C)c(=O)n(-c5ccc(F)cc5)c4=O)cc3F)ccn2)nc1 [Example 5] | 56 nM | 24 nM
30 | CC(C)n1cc(C(=O)Nc2ccc(Oc3ccnc(Nc4ccc(S(=O)(=O)N(C)C)cn4)c3)c(F)c2)c(=O)n(Cc2ccncc2)c1=O [Example 58] | 201 nM | 287 nM
31 | Cc1cc(Nc2cc(Oc3ccc(NC(=O)c4cn(C(C)C)c(=O)n(-c5ccc(F)cc5)c4=O)cc3F)ccn2)nc(N2CCN(S(C)(=O)=O)CC2)c1 [Example 136, N-{3-fluoro-4-[(2-{[6-(4-methanesulfonylpiperazin-1-yl)-4-methylpyridin-2-yl]amino}pyridin-4-yl)oxy]phenyl}-3-(4-fluorophenyl)-2,4-dioxo-1-(propan-2-yl)-1,2,3,4-tetrahydropyrimidine-5-carboxamide] | 3.9 nM | 1040 nM
32 | CC(C)n1cc(C(=O)Nc2ccc(Oc3ccnc(Nc4ccc(S(=O)(=O)N(C)C)cn4)c3)c(F)c2)c(=O)n(-c2ccc(F)cc2)c1=O [Example 20] | 12 nM | 4.7 nM
33 | CC(C)n1cc(C(=O)Nc2ccc(Oc3ccnc(Nc4ccc(C(=O)N(C)C)cn4)c3)c(F)c2)c(=O)n(-c2ccc(F)cc2)c1=O [Example 17] | 1.9 nM | 2.7 nM
34 | CC(C)n1cc(C(=O)Nc2ccc(Oc3ccnc(Nc4ccc(C#N)cn4)c3)c(F)c2)c(=O)n(-c2ccc(F)cc2)c1=O [Example 1, N-[4-({2-[(5-cyanopyridin-2-yl)amino]pyridin-4-yl}oxy)-3-fluorophenyl]-3-(4-fluorophenyl)-2,4-dioxo-1-(propan-2-yl)-1,2,3,4-tetrahydropyrimidine-5-carboxamide] | 14 nM | 2.9 nM
35 | CC(C)n1cc(C(=O)Nc2ccc(Oc3ccnc(Nc4ccc(C(=O)NCC(C)(C)O)cn4)c3)c(F)c2)c(=O)n(-c2ccc(F)cc2)c1=O [Example 92, N-(3-Fluoro-4-{[2-({5-[(2-hydroxy-2-methylpropyl)carbamoyl]pyridin-2-yl}amino)pyridin-4-yl]oxy}phenyl)-3-(4-fluorophenyl)-2,4-dioxo-1-(propan-2-yl)-1,2,3,4-tetrahydropyrimidine-5-carboxamide] | 1.9 nM | 0.4 nM
